The test system of the test is BDF1 mice, B16 melanoma ip, median survival T/C. The test can be described thus: NCI In Vivo Anticancer Drug Screen. Data for tumor model B16 Melanoma (intraperitoneal) in B6D2F1 (BDF1) mice. The conditions noted are these: endpoint: median survival time, higher = longer survival. In a few lines:
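The ratio T/C compares compound-treated mice with vehicle-treated controls, using survival or tumor size as the endpoint in a transplantable tumor model.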

[1] abbreviates: dose: 100.0 mg/kg/injection, schedule: Q01DX009 (ip), vehicle: Klucel (hydroxypropylcellulose) (HPC).
Setting [2] is: dose: 200.0 mg/kg/injection, schedule: Q01DX009 (ip), vehicle: Klucel (hydroxypropylcellulose) (HPC).
Where [3] appears, read: dose: 400.0 mg/kg/injection, schedule: Q01DX009 (ip), vehicle: Klucel (hydroxypropylcellulose) (HPC).
The mark [4] stands for this setting: dose: 25.0 mg/kg/injection, schedule: Q01DX009 (ip), vehicle: saline.
Where [5] appears, read: dose: 200.0 mg/kg/injection, schedule: Q01DX009 (ip), vehicle: saline.
Where [6] appears, read: dose: 100.0 mg/kg/injection, schedule: Q04DX003 (ip), vehicle: Klucel (hydroxypropylcellulose) (HPC).
The mark [7] stands for this setting: dose: 25.0 mg/kg/injection, schedule: Q01DX009 (ip), vehicle: Klucel (hydroxypropylcellulose) (HPC).
[8] abbreviates: dose: 50.0 mg/kg/injection, schedule: Q01DX009 (ip), vehicle: Klucel (hydroxypropylcellulose) (HPC).
Setting [9] is: dose: 6.25 mg/kg/injection, schedule: Q01DX009 (ip), vehicle: saline with Tween-80.
Where [10] appears, read: dose: 100.0 mg/kg/injection, schedule: Q01DX009 (ip), vehicle: saline with Tween-80.
Setting [11] is: dose: 200.0 mg/kg/injection, schedule: Q01DX009 (ip), vehicle: saline with Tween-80.
The mark [12] stands for this setting: dose: 12.5 mg/kg/injection, schedule: Q01DX009 (ip), vehicle: saline with Tween-80.
The mark [13] stands for this setting: dose: 25.0 mg/kg/injection, schedule: Q01DX009 (ip), vehicle: saline with Tween-80.
The mark [14] stands for this setting: dose: 200.0 mg/kg/injection, schedule: Q04DX003 (ip), vehicle: Klucel (hydroxypropylcellulose) (HPC).
Setting [15] is: dose: 400.0 mg/kg/injection, schedule: Q04DX003 (ip), vehicle: Klucel (hydroxypropylcellulose) (HPC).

Values joined by “and” are separate entries in the source; they are usually repeats but may differ in a detail not shown here. Identical values can stand only once. Toxic doses and inconclusive results are not listed.

For the molecule `O=C1NC(c2c(Cl)cccc2Cl)Nc2ccccc21` (stereo not given), the T/C under setting [1] is 96 % of control, the T/C under setting [2] was 103 % of control and the T/C under setting [3] was 90 % of control.
As to `CCC(CC)(CO)CO`, the T/C was 92 % of control under setting [4]; 102 % of control (dose: 50.0 mg/kg/injection, schedule: Q01DX009 (ip), vehicle: saline); 104 % of control (dose: 100.0 mg/kg/injection, schedule: Q01DX009 (ip), vehicle: saline); 107 % of control under setting [5]; 97 % of control (dose: 400.0 mg/kg/injection, schedule: Q01DX009 (ip), vehicle: saline).
Take `O=C/C(Br)=C\c1ccccc1`: the T/C reads like this: (dose: 25.0 mg/kg/injection, schedule: Q04DX003 (ip), vehicle: Klucel (hydroxypropylcellulose) (HPC)) 96 % of control; (dose: 50.0 mg/kg/injection, schedule: Q04DX003 (ip), vehicle: Klucel (hydroxypropylcellulose) (HPC)) 103 % of control; under setting [6], 96 % of control.
For the molecule `C(=P(c1ccccc1)(c1ccccc1)c1ccccc1)[P+](c1ccccc1)(c1ccccc1)c1ccccc1`, the T/C reads like this: (dose: 3.12 mg/kg/injection, schedule: Q01DX009 (ip), vehicle: Klucel (hydroxypropylcellulose) (HPC)) 111 % of control; (dose: 6.25 mg/kg/injection, schedule: Q01DX009 (ip), vehicle: suspension in saline) 157 % of control.
On to `CCNC(C)(C)C(S)c1ccc(Cl)s1` (stereo not given), for which the T/C was 97 % of control (dose: 18.75 mg/kg/injection, schedule: Q01DX009 (ip), vehicle: saline with Tween-80); 97 % of control under setting [7]; 101 % of control (dose: 37.5 mg/kg/injection, schedule: Q01DX009 (ip), vehicle: saline with Tween-80); 101 % of control under setting [8]; 100 % of control (dose: 75.0 mg/kg/injection, schedule: Q01DX009 (ip), vehicle: saline with Tween-80); 95 % of control under setting [1]. Under “dose: 150.0 mg/kg/injection, schedule: Q01DX009 (ip), vehicle: saline with Tween-80”, the T/C was 106 % of control.
On to `Oc1ccc(/C=N\Nc2ccccn2)c(O)c1`, for which the T/C is, setting by setting: (dose: 12.5 mg/kg/injection, schedule: Q01DX009 (ip), vehicle: Klucel (hydroxypropylcellulose) (HPC)) 90 % of control; under setting [7], 102 % of control; under setting [8], 98 % of control; under setting [1], 115 % of control; under setting [2], 124 % of control.
As to `O=c1[nH][nH]c(=O)n1O`, the T/C by setting is: (dose: 130.0 mg/kg/injection, schedule: Q01DX009 (ip), vehicle: saline) 112 % of control; under setting [5], 103 % of control; (dose: 300.0 mg/kg/injection, schedule: Q01DX009 (ip), vehicle: saline) 115 % of control.
As to `CC([NH-])C[NH-].[Cl][Pt+2][Cl]` (stereo not given), the T/C is 102 % of control (dose: 0.31 mg/kg/injection, schedule: Q01DX009 (ip), vehicle: saline); 89 % of control (dose: 0.31 mg/kg/injection, schedule: Q04DX003 (ip), vehicle: saline); 112 % of control (dose: 0.62 mg/kg/injection, schedule: Q01DX009 (ip), vehicle: saline); 100 % of control (dose: 0.62 mg/kg/injection, schedule: Q04DX003 (ip), vehicle: saline); 110 % of control (dose: 1.25 mg/kg/injection, schedule: Q01DX009 (ip), vehicle: saline); 107 % of control (dose: 1.25 mg/kg/injection, schedule: Q04DX003 (ip), vehicle: saline).
With `O=C(O)C1CC(c2ccccc2)=NN1c1ccccc1` (stereo not given), the T/C is 104 % of control (dose: 12.5 mg/kg/injection, schedule: Q01DX009 (ip), vehicle: water); 99 % of control and 100 % of control (dose: 25.0 mg/kg/injection, schedule: Q01DX009 (ip), vehicle: water); 99 % of control (dose: 50.0 mg/kg/injection, schedule: Q01DX009 (ip), vehicle: water); 97 % of control and 110 % of control (dose: 100.0 mg/kg/injection, schedule: Q01DX009 (ip), vehicle: water); 104 % of control and 110 % of control (dose: 200.0 mg/kg/injection, schedule: Q01DX009 (ip), vehicle: water).
Consider `Nc1ccc2ccc(O)cc2c1`, for which the T/C (dose: 75.0 mg/kg/injection, schedule: Q04DX003 (ip), vehicle: saline with Tween-80) was 105 % of control and the T/C (dose: 150.0 mg/kg/injection, schedule: Q04DX003 (ip), vehicle: saline with Tween-80) is 95 % of control.
On to `O=[N+]([O-])c1ccc2scc3c4ccccc4nc-3c2c1`, for which the T/C (dose: 6.25 mg/kg/injection, schedule: Q01DX009 (ip), vehicle: saline) was 90 % of control and the T/C (dose: 12.5 mg/kg/injection, schedule: Q01DX009 (ip), vehicle: saline) is 99 % of control.
With `CNC(=O)c1cccc2c(Nc3ccc(NS(C)(=O)=O)cc3OC)c3cccc(C)c3nc12`, the T/C was 162 % of control (dose: 1.5 mg/kg/injection, schedule: Q01DX009 (ip), vehicle: water) and 201 % of control (dose: 3.0 mg/kg/injection, schedule: Q01DX009 (ip), vehicle: water).
In the case of `CCc1ncnc2cc(OCC3CO3)c(OC)cc12` (stereo not given), the T/C is 109 % of control under setting [9]; 114 % of control (dose: 20.0 mg/kg/injection, schedule: Q04DX003 (ip), vehicle: other); 154 % of control under setting [4].
Regarding `CCC(C)C1NC(=O)C(NC(=O)c2c3nc4c(C(=O)NC5C(=O)NC(C(C)CC)C(=O)N6CCCC6C(=O)N(C)CC(=O)N(C)C(C(C)C)C(=O)OC5C)ccc(C)c4oc-3c(C)c(=O)c2Cl)C(C)OC(=O)C(C(C)C)N(C)C(=O)CN(C)C(=O)C2CCCN2C1=O` (stereo not given), the T/C (dose: 1.25 mg/kg/injection, schedule: Q01DX009 (ip), vehicle: Klucel (hydroxypropylcellulose) (HPC)) is 117 % of control and the T/C (dose: 10.0 mg/kg/injection, schedule: Q01DX009 (ip), vehicle: Klucel (hydroxypropylcellulose) (HPC)) was 164 % of control.
Turning to `CCOC(=O)C(C(=O)OCC)N(CC)CC`, the T/C is, setting by setting: under setting [1], 93 % of control; under setting [2], 90 % of control; under setting [3], 100 % of control.
`CS(=O)(=O)OCC(=O)NCC(O)CNC(=O)COS(C)(=O)=O`: the T/C is 109 % of control (dose: 50.0 mg/kg/injection, schedule: Q01DX009 (ip), vehicle: saline with Tween-80); 104 % of control under setting [10]; 115 % of control under setting [11].
`C=CCC(OC(=O)c1ccc(Br)cc1)C1(C)OC1C(C)C1CC(O)(C(OC)OC)NC(=O)O1` (stereo not given): the T/C runs as follows: (dose: 0.25 mg/kg/injection, schedule: Q01DX009 (ip), vehicle: saline + alcohol) 100 % of control; (dose: 0.5 mg/kg/injection, schedule: Q01DX009 (ip), vehicle: saline + alcohol) 103 % of control; (dose: 1.0 mg/kg/injection, schedule: Q01DX009 (ip), vehicle: saline + alcohol) 93 % of control; (dose: 2.0 mg/kg/injection, schedule: Q01DX009 (ip), vehicle: saline + alcohol) 98 % of control; (dose: 4.0 mg/kg/injection, schedule: Q01DX009 (ip), vehicle: saline + alcohol) 90 % of control.
For the molecule `COc1ccc(NC(=S)Nc2ccccn2)cc1`, the T/C is 107 % of control under setting [1]; 100 % of control under setting [10]; 100 % of control under setting [2]; 100 % of control under setting [11]; 92 % of control under setting [3].
`CCc1ccc(NC(=O)C(c2ccccc2)c2ccccc2)cc1`: the T/C under setting [12] was 89 % of control and the T/C under setting [13] was 86 % of control.
`O=C(CC(O)(C(F)(F)F)C(F)(F)F)c1cccc2ccccc12`: the T/C reads like this: under setting [6], 90 % of control; under setting [14], 95 % of control; under setting [15], 102 % of control.
As to `O=[N+]([O-])c1ccc2c(c1)Cc1cc(Br)ccc1-2`, the T/C runs as follows: under setting [6], 97 % of control; under setting [14], 100 % of control; under setting [15], 100 % of control.
For `O=C(CNC(=O)Nc1ccc(C2=NCCN2)cc1)Nc1ccc(C2=NCCN2)cc1`, the T/C was 97 % of control under setting [9], 100 % of control under setting [12] and 97 % of control under setting [13].
Turning to `Nc1nc2[nH]c(=O)cnc2c(=O)[nH]1`, the T/C reads like this: under setting [8], 88 % of control; under setting [1], 86 % of control; under setting [2], 99 % of control.
For `CCCCCCCCCC1(C)OCC(COC(N)=O)O1` (stereo not given), the T/C by setting is: under setting [7], 90 % of control; under setting [8], 90 % of control; under setting [1], 92 % of control; under setting [2], 95 % of control; under setting [3], 95 % of control.

For the origin of these results see PubChem BioAssay AID192 (DTP/NCI, 2004).
